Format in all cases: in vivo
For data set [1], the system named is White flies, Trialeurodes vaporarium. Description: White fly larvae on bean, boom sprayer application (IRAC n°015 adapted), mortality. Conditions: for LD50 (g al/ha) / LD90 (g a.i/ha): mortality 9 days after application (D + 9); for LD50 (g a.i./ha) / LD90 (g a.i./ha): mortality 14 days after application (D + 14). An excerpt:
White flies, Trialeurodes vaporarium—larvae
Study based on IRAC n°015 methods, stage and application method adapted Plant: bean Application: On the petri dish with larvae with a boom sprayer apparatus Assessment of mortality at 7, 9 and 14 days after application a.i. refers to active ingredient
(§1) LC stands for “Lethal Concentration”. LC values refer to the concentration of a chemical required to kill a certain proportion of a population of pests. The concentration of the chemical that kills 50 percent of the pests during the observation period is the LC50 value and a concentration that kills 90 percent of a population is LC90, LD stands for “Lethal Dose”. LD50 is the amount of an ingested substance that kills 50 percent of a test sample and […] is the lethal dose that kills 90 percent of the test sample. […] In example 1, approximately 4 times less thiocyclam hydrochloride was ingested by the moths at LC50 compared to cartap and approximately 9 times less at LC90 compared to cartap. […] In example 7, all three insecticides performed similarly to eliminate the aphids on radish plants. […] The use of the thiocyclam hydrochloride composition embodiments is in no way restricted to these genera, but also extends in the same manner to other insects and other crops.

Another data set has as its system Aphids, Myzus persicae. Put plainly: Aphid larvae on radish, boom sprayer application (IRAC n°019 adapted), mortality. To be noted: for LD50 (g a.iJha) / LD90 (g al./ha): mortality 3 days after application (D + 3); for LD50 (g al./ha) / LD90 (g alJha): mortality 4 days after application (D + 4).
Excerpt: Aphids, Myzus persicae—larvae
Study based on IRAC n°019 methods, application method adapted Plant: radish Application on petri dish with larvae with a boom sprayer apparatus Assessment of mortality 3 and 4 days after application a.i. refers to active ingredient
as §1

The subject of data set [2] is Soybean looper, Chrysodeixis includens. Put plainly: Soybean looper bioassay by diet surface incorporation, mortality. Conditions: for LC50: Chrysodeixis includens, 72 h, 3rd larval stage, diet surface incorporation, mortality 3 days after treatment (D + 3), read-out: LC50 (μg of a.i/ml of diet).
Excerpt: Soybean looper, Chrysodeixis includens—3rd larval stage
Bioassay by diet surface incorporation Mortality assessment 3 days after treatment a.i. refers to active ingredient
as §1

Data set [3] relates to Coding moth, Cydia pomonella.
Excerpt: Coding moth, Cydia pomonella—onate
larvae Bioassay by diet incorporation; Mortality assessment 2 days after treatment a.i. refers to active ingredient
as §1

Molecules are shown by their SMILES.

As for `CN(C)C(CSC(N)=O)CSC(N)=O` [Cartap, reference compound], in data set [1] (larvae, bean), the “LD50 (g al/ha)” value stood at 15.6 g al/ha, the “LD90 (g a.i/ha)” value is on record as 4,566.3 g a.i/ha, the “LD50 (g a.i./ha)” value amounted to 10.4 g a.i./ha and the “LD90 (g a.i./ha)” value was 910.4 g a.i./ha. For the same molecule, in the data set with Aphids, Myzus persicae, the “LD50 (g a.iJha)” value is less than 18.18 g a.iJha, the “LD90 (g al./ha)” value stood at 36.70 g al./ha, the “LD50 (g al./ha)” value is given as less than 18.18 g al./ha and the “LD90 (g alJha)” value is given as 16 g alJha. Besides, the LC50 in data set [2] came out at 53.1 µg/mL.

With `CN(C)C1CSSSC1.Cl` [Thiocyclam HCl, N,N-dimethyl-1,2,3-trithian-5-ylamine hydrochloride], the “times less ingested by the moths at LC50 compared to cartap” value in data set [3] (compared to cartap, LC50) is reported as “approximately 4 times”. The “times less at LC90 compared to cartap” value in data set [3] (compared to cartap, LC90) is on record as “approximately 9 times”. The “LC50 and LC90 compared to thiocyclam oxalate” value in data set [3] (compared to thiocyclam oxalate) is reported as “significantly lower concentrations”. Also, the “LD90 compared to cartap” value in data set [1] (days 7 and 9) was “lower application concentration compared to cartap”. Moreover, in data set [1] (larvae, bean, mortality 7 days after application (D + 7)), the “LD90 (g ai./ha)” value is 1,899 g ai./ha. Moreover, in data set [1] (larvae, bean), the “LD50 (g al/ha)” value turned out to be 2.23 g al/ha, the “LD90 (g a.i/ha)” value was 4,905 g a.i/ha, the “LD50 (g a.i./ha)” value turned out to be 0.82 g a.i./ha and the “LD90 (g a.i./ha)” value is 7,910 g a.i./ha. In the data set with Aphids, Myzus persicae, the “LD50 (g a.iJha)” value turned out to be 12.04 g a.iJha, the “LD90 (g al./ha)” value came out at 30.51 g al./ha, the “LD50 (g al./ha)” value was 7.66 g al./ha and the “LD90 (g alJha)” value is recorded as 27.07 g alJha. Also, the LC50 in data set [2] was determined as 8.99 µg/mL. Also, in data set [2] (compared to cartap, LC50), the “LC50 achieved with times less than cartap” value is “approximately 6 times”. The “LC90 compared to the concentration of cartap” value in data set [2] (compared to cartap, LC90) is on record as “more than three times lower”. The “LC50 achieved with times less than thiocyclam oxalate” value in data set [2] (compared to thiocyclam oxalate, LC50) is recorded as “approximately 20 times”. For the same molecule, the “LC90 compared to thiocyclam oxalate” value in data set [2] (compared to thiocyclam oxalate, LC90) is on record as “orders of magnitude smaller”.

(Values after patent US20210321613A1, “Process for Preparation of Thiocyclam Base and Salt” (ARYSTA L[…], priority 2018, published 2021).)
